Earlier results in patent US20100249179A1, “Farnesoid X Receptor Agonists” (SMITHKLINE BEECHAM CORPORATION, priority 2007, published 2010).
Entries after “also recorded” stand apart in the source; their conditions may differ.

Experiments:
[1] = test system: C57BL mice on high-fat diet; settings: cited from earlier work
bile duct-ligated mouse = bile duct-ligated mouse model; cited from earlier work
[2] = test system: mice on a lithogenic diet; settings: cited from earlier work
diabetic db/db mice = settings: cited from earlier work
male ob/ob mice = settings: GW4064 30 mg/kg intraperitoneally; cited from earlier work
[3] = GW4064 100 mg/kg twice a day orally, high-fat diet mice, 100 mg/kg
[4] = GW4064 100 mg/kg twice a day orally, high-fat diet mice
[5] = oral GW4064 30 mg/kg bid, db/db mice

## CC(C)c1onc(-c2c(Cl)cccc2Cl)c1COc1ccc(/C=C/c2cccc(C(=O)O)c2)c(Cl)c1 [GW4064]
[1]; GW4064 100 mg/kg twice a day orally, high-fat diet mice, GTT, 100 mg/kg
  glucose tolerance: corrected glucose intolerance; also recorded: improve
[1]; [3]
  serum glucose: decreased
  serum insulin: decreased
  serum triglyceride: decreased
[1]; [4]
  high-fat diet induced body weight gain: reduced
  liver triglyceride content: reduced
[1]; mice on high-fat diet
  body fat mass: decrease
  body weight: decrease
  total cholesterol: decrease
Bile duct-ligated mouse
  bacterial overgrowth: decreased
  mucosal barrier: improved
  translocation of bacteria to mesenteric lymph nodes: decreased
[2]
  formation of cholesterol crystals in the bile: prevented
Diabetic db/db mice; db/db mice
  glycogen storage in the liver: enhanced
  insulin signalling in the liver: enhanced
Diabetic db/db mice; diabetic db/db mice
  hyperglycemia: significantly improved
  hyperlipidemia: significantly improved
Diabetic db/db mice; [5]
  NEFA: decreased
  blood glucose: decreased
  serum β-hydroxybutyrate: decreased
  total cholesterol: decreased
  triglyceride: decreased
Male ob/ob mice
  body weight: did not alter
  fasting blood glucose: no effect
  food intake: did not alter
  glucose tolerance: improved
  insulin concentration: decreased
  insulin sensitivity: enhanced
